Test results as given in PubChem BioAssay (NCI).
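A five-concentration, 48-hour dose response in 96-well plates underlies each endpoint, interpolated linearly between surrounding concentrations. Here, GI50 denotes the concentration required for 50% inhibition of growth. Definition used: TGI = concentration required for complete inhibition of growth.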

Key:
Assay in all cases: NCI anticancer screen, dose series, 48 h
HCC-2998 colon = tested on: HCC-2998 colon
HCT-15 colon = tested on: HCT-15 colon
A549 NSCLC = tested on: A549 NSCLC
OVCAR-8 ovarian = tested on: OVCAR-8 ovarian
SNB-19 CNS = tested on: SNB-19 CNS
OVCAR-4 ovarian = tested on: OVCAR-4 ovarian
TK-10 renal = tested on: TK-10 renal
BT-549 breast = tested on: BT-549 breast
786-0 renal = tested on: 786-0 renal
SK-MEL-5 melanoma = tested on: SK-MEL-5 melanoma
HT29 colon = tested on: HT29 colon
K-562 leukemia = tested on: K-562 leukemia
COLO 205 colon = tested on: COLO 205 colon
OVCAR-3 ovarian = tested on: OVCAR-3 ovarian
SK-MEL-28 melanoma = tested on: SK-MEL-28 melanoma
CAKI-1 renal = tested on: CAKI-1 renal
NCI-H460 lung = tested on: NCI-H460 lung
UACC-62 melanoma = tested on: UACC-62 melanoma
CCRF-CEM leukemia = tested on: CCRF-CEM leukemia
RPMI-8226 leukemia = tested on: RPMI-8226 leukemia
SW-620 colon = tested on: SW-620 colon
SR leukemia = tested on: SR leukemia
MDA-MB-231 breast = tested on: MDA-MB-231 breast
MALME-3M melanoma = tested on: MALME-3M melanoma
A498 renal = tested on: A498 renal
SK-OV-3 ovarian = tested on: SK-OV-3 ovarian
UO-31 renal = tested on: UO-31 renal
SK-MEL-2 melanoma = tested on: SK-MEL-2 melanoma
MCF7 breast = tested on: MCF7 breast
DU-145 prostate = tested on: DU-145 prostate

`CCN1C(=O)N(CC)C2SC(N/N=C/c3cccs3)=NC21` (centres undefined) gave a TGI (HCC-2998 colon) of over 93800 nM, a GI50 (HCT-15 colon) of 202 nM and a TGI (HCT-15 colon) of over 100000 nM. It also gave a GI50 (A549 NSCLC) of 431 nM, a TGI (A549 NSCLC) of over 100000 nM and a GI50 (OVCAR-8 ovarian) of 398 nM. It also gave a GI50 (SNB-19 CNS) of 428 nM, a TGI (SNB-19 CNS) of over 100000 nM and a TGI (OVCAR-4 ovarian) of over 100000 nM. The TGI (TK-10 renal) was over 100000 nM, the GI50 (BT-549 breast) was 211 nM and the TGI (BT-549 breast) was 1270 nM. For the same molecule, the GI50 (786-0 renal) was 643 nM, the TGI (786-0 renal) was over 100000 nM and the GI50 (SK-MEL-5 melanoma) was 523 nM. It also gave a TGI (SK-MEL-5 melanoma) of 3360 nM, a GI50 (HT29 colon) of 260 nM and a TGI (HT29 colon) of 3200 nM. It also gave a GI50 (K-562 leukemia) of 91.2 nM, a TGI (K-562 leukemia) of over 100000 nM and a GI50 (COLO 205 colon) of 248 nM. For the same molecule, the TGI (COLO 205 colon) was 723 nM, the GI50 (OVCAR-3 ovarian) was 333 nM and the TGI (OVCAR-3 ovarian) was 2070 nM. The GI50 (SK-MEL-28 melanoma) was over 19700 nM, the TGI (SK-MEL-28 melanoma) was over 100000 nM and the GI50 (CAKI-1 renal) was 191 nM. The TGI (CAKI-1 renal) was over 100000 nM, the GI50 (NCI-H460 lung) was 333 nM and the GI50 (UACC-62 melanoma) was 141 nM. It also gave a TGI (UACC-62 melanoma) of over 100000 nM, a GI50 (CCRF-CEM leukemia) of 360 nM and a TGI (CCRF-CEM leukemia) of over 100000 nM. The GI50 (RPMI-8226 leukemia) was 348 nM, the TGI (RPMI-8226 leukemia) was over 100000 nM and the GI50 (SW-620 colon) was 249 nM. The TGI (SW-620 colon) was over 100000 nM, the GI50 (SR leukemia) was 54.6 nM and the TGI (SR leukemia) was over 26800 nM. It also gave a GI50 (MDA-MB-231 breast) of 540 nM, a TGI (MDA-MB-231 breast) of over 100000 nM and a TGI (MALME-3M melanoma) of over 100000 nM. It also gave a GI50 (A498 renal) of 131 nM, a TGI (A498 renal) of 705 nM and a GI50 (SK-OV-3 ovarian) of 532 nM. For the same molecule, the TGI (SK-OV-3 ovarian) was over 100000 nM, the GI50 (UO-31 renal) was 595 nM and the TGI (UO-31 renal) was over 100000 nM. For the same molecule, the GI50 (SK-MEL-2 melanoma) was 360 nM, the TGI (SK-MEL-2 melanoma) was over 100000 nM and the GI50 (MCF7 breast) was 119 nM. For the same molecule, the TGI (MCF7 breast) was over 100000 nM, the GI50 (DU-145 prostate) was 483 nM and the TGI (DU-145 prostate) was over 100000 nM.
